Assay results published in patent publication US9901582B2, “Polymorphisms in ABCB1 associated with a lack of clinical response to medicaments” (Max-Planck-Gesellschaft zur Förderung der Wisenschaften e. …, priority 2007, dated 2018).
Read-outs that look alike come from different tables or passages of the source.

Assays:
P-gp [1] = conditions: after single administration, same mouse model; cited from earlier work
ABCB1 = ABCB1 (Homo sapiens, UniProt P08183); conditions: cited from earlier work; for Inducer: inducer of ABCB1
Sequence of ABCB1 (P08183 whole entry): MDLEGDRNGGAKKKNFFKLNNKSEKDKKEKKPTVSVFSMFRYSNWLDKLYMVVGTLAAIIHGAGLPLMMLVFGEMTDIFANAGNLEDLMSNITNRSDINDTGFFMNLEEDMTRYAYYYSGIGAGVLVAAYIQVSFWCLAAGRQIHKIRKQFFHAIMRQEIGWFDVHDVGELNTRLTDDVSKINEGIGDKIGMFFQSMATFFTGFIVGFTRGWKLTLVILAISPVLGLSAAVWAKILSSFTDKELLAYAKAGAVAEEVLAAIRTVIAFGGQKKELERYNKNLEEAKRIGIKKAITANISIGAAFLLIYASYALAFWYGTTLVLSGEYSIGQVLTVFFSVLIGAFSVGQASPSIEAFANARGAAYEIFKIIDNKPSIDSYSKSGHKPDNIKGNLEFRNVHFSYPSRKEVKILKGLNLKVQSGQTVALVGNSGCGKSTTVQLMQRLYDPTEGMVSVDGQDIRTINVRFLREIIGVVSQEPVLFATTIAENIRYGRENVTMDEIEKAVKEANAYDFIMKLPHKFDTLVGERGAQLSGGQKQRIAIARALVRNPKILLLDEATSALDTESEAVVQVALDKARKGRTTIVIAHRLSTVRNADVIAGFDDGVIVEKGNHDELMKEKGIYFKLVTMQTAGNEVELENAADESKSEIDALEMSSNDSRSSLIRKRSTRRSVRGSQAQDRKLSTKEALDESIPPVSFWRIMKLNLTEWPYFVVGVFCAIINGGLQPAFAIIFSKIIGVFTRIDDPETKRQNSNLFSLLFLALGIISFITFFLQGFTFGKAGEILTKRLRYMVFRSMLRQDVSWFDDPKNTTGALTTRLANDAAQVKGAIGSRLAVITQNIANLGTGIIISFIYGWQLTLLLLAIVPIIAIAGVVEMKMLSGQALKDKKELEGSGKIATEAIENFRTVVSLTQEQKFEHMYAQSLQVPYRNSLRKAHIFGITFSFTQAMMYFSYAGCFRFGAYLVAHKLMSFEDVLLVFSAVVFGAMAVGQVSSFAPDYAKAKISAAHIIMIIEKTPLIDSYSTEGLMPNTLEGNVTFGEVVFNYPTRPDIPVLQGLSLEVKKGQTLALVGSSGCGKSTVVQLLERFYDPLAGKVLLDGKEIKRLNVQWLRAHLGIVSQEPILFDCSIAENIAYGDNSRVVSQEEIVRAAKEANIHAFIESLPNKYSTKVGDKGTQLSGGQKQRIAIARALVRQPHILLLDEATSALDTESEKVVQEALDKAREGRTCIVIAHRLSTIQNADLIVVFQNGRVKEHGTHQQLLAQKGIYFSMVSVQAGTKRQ

ABCB1 gene = conditions: human, in vivo
Procedure: The antidepressant plasma concentration was monitored to assure clinically efficient drug levels.
To this end, we created the residuals of linear regression with the dependent variable drug dose or plasma concentration and the independent variables age and gender. These residuals and SNP genotyping data were tested in an ANOVA analysis for statistical differences between the genotypes. Empiric p-values were calculated by applying 10^6 permutations (residuals randomly redistributed over the genotypes). Fisher's product method (FPM) includes the residuals of the dose or plasma concentration variables and the genotype variables from the SNPs rs2235067, rs4148740, rs2032583, rs4148739, rs11983225, rs2235040, rs12720067, rs7787082, rs10248420, rs10280101 and rs2235015.

P-gp [2] = conditions: mouse
P-gp [3] = assay: Organ and plasma concentrations of antidepressants in abcb1ab(−/−) knockout mice versus FVB/N wild-type controls (blood-organ barrier function); conditions: for brain concentrations, times higher in the mutant mice compared to wild-type littermates: 11 days, s.c. osmotic infusion pumps; for cerebrum concentration, abcb1ab (−/−) / kidney concentration, abcb1ab (−/−) / liver concentration, abcb1ab (−/−) / lung concentration, abcb1ab (−/−) / plasma concentration, abcb1ab (−/−) / spleen concentration, abcb1ab (−/−) / testes concentration, abcb1ab (−/−): abcb1ab(−/−) mice; for cerebrum concentration, abcb1ab (−/−) / kidney concentration, abcb1ab (−/−) / liver concentration, abcb1ab (−/−) / lung concentration, abcb1ab (−/−) / plasma concentration, abcb1ab (−/−) / spleen concentration, abcb1ab (−/−) / testes concentration, abcb1ab (−/−) / cerebrum concentration, control / kidney concentration, control / liver concentration, control / lung concentration, control / plasma concentration, control / spleen concentration, control / testes concentration, control: after 11 days s.c. via osmotic pumps; for penetration into the brain (organ/plasma concentration ratio), times higher in animals lacking P-gp than in control animals / ratio (−/−)/(+/+), cerebrum / ratio (−/−)/(+/+), kidney / ratio (−/−)/(+/+), liver / ratio (−/−)/(+/+), lung / ratio (−/−)/(+/+), plasma / ratio (−/−)/(+/+), spleen / ratio (−/−)/(+/+), testes / differences in testes/plasma ratio between knockout and control: 11 days s.c.; for penetration into the brain (organ/plasma concentration ratio), times higher in animals lacking P-gp than in control animals / differences in testes/plasma ratio between knockout and control: FIG. 1; for ratio (−/−)/(+/+), cerebrum: cerebrum concentration; for ratio (−/−)/(+/+), cerebrum / ratio (−/−)/(+/+), kidney / ratio (−/−)/(+/+), liver / ratio (−/−)/(+/+), lung / ratio (−/−)/(+/+), plasma / ratio (−/−)/(+/+), spleen / ratio (−/−)/(+/+), testes: knockout/control; for ratio (−/−)/(+/+), kidney: kidney concentration; for ratio (−/−)/(+/+), liver: liver concentration; for ratio (−/−)/(+/+), lung: lung concentration; for ratio (−/−)/(+/+), plasma: plasma concentration; for ratio (−/−)/(+/+), spleen: spleen concentration; for ratio (−/−)/(+/+), testes: testes concentration; for cerebrum concentration, control / kidney concentration, control / liver concentration, control / lung concentration, control / plasma concentration, control / spleen concentration, control / testes concentration, control: wild-type control mice
[4] = male, FVB/N wild-type, in vivo, sc, 11 days
[5] = male, abcb1ab(−/−) on FVB/N background versus FVB/N wild-type, in vivo, sc, 11 days
[6] = male, abcb1ab(−/−) on FVB/N background, in vivo, sc, 11 days

Structure (SMILES): CN(C)CCC=C1c2ccccc2CCc2ccccc21 [Amitriptyline]
- P-gp substrate status at the blood-brain barrier, earlier studies (P-gp [1]): substrates of P-gp at the blood-brain barrier

Structure (SMILES): CCN(CC)CCCC(C)Nc1ccnc2cc(Cl)ccc12 (centres unmarked) [Chloroquine]
- Inhibitor (ABCB1; inhibitor of ABCB1): (x)

Structure (SMILES): CN(C)CCCC1(c2ccc(F)cc2)OCc2cc(C#N)ccc21 (centres unmarked) [Citalopram]
- genotype-dependent differences in plasma levels of patients (ABCB1 gene): small significant difference
- cerebrum concentration, control (P-gp [2]; [4]): 158.27 ng/g or ml
- kidney concentration, control (P-gp [2]; [4]): 962.29 ng/g or ml
- liver concentration, control (P-gp [2]; [4]): 238.02 ng/g or ml
- lung concentration, control (P-gp [2]; [4]): 1238.71 ng/g or ml
- plasma concentration, control (P-gp [2]; [4]): 106.71 ng/g or ml
- spleen concentration, control (P-gp [2]; [4]): 446.96 ng/g or ml
- testes concentration, control (P-gp [2]; [4]): 428.19 ng/g or ml
- brain concentrations, times higher in the mutant mice compared to wild-type littermates (P-gp [2]; [5]): 3.0 times
- cerebrum concentration, abcb1ab (−/−) (P-gp [2]; [6]): 480.93 ng/g or ml
- kidney concentration, abcb1ab (−/−) (P-gp [2]; [6]): 795.74 ng/g or ml
- liver concentration, abcb1ab (−/−) (P-gp [2]; [6]): 240.33 ng/g or ml
- lung concentration, abcb1ab (−/−) (P-gp [2]; [6]): 1238.47 ng/g or ml
- plasma concentration, abcb1ab (−/−) (P-gp [2]; [6]): 89.37 ng/g or ml
- spleen concentration, abcb1ab (−/−) (P-gp [2]; [6]): 468.29 ng/g or ml
- testes concentration, abcb1ab (−/−) (P-gp [2]; [6]): 687.92 ng/g or ml
- P-gp substrate status at the BBB (P-gp [2]): substrates of P-gp at the BBB
- P-gp substrate status at the blood-brain barrier, earlier studies (P-gp [1]): substrates of P-gp at the blood-brain barrier

Structure (SMILES): CN(C)CC(c1ccc(O)cc1)C1(O)CCCCC1 [D-Venlafaxine, O-desmethyl venlafaxine]
- brain concentrations, times higher in the mutant mice compared to wild-type littermates (P-gp [3]): 4.1 times
- cerebrum concentration, abcb1ab (−/−) (P-gp [3]): 36.99 ng/g or ml
- kidney concentration, abcb1ab (−/−) (P-gp [3]): 127.32 ng/g or ml
- liver concentration, abcb1ab (−/−) (P-gp [3]): 88.22 ng/g or ml
- lung concentration, abcb1ab (−/−) (P-gp [3]): 44.91 ng/g or ml
- plasma concentration, abcb1ab (−/−) (P-gp [3]): 5.98 ng/g or ml
- spleen concentration, abcb1ab (−/−) (P-gp [3]): 33.80 ng/g or ml
- testes concentration, abcb1ab (−/−) (P-gp [3]): 39.19 ng/g or ml
- penetration into the brain (organ/plasma concentration ratio), times higher in animals lacking P-gp than in control animals (P-gp [3]): 3.6 times
- ratio (−/−)/(+/+), cerebrum (P-gp [3]): 4.1
- ratio (−/−)/(+/+), kidney (P-gp [3]): 1.2
- ratio (−/−)/(+/+), liver (P-gp [3]): 1.1
- ratio (−/−)/(+/+), lung (P-gp [3]): 0.9
- ratio (−/−)/(+/+), plasma (P-gp [3]): 1.1
- ratio (−/−)/(+/+), spleen (P-gp [3]): 1.1
- ratio (−/−)/(+/+), testes (P-gp [3]): 1.3
- differences in testes/plasma ratio between knockout and control (P-gp [3]): smaller but still significant differences
- cerebrum concentration, control (P-gp [3]): 8.97 ng/g or ml
- kidney concentration, control (P-gp [3]): 107.88 ng/g or ml
- liver concentration, control (P-gp [3]): 83.15 ng/g or ml
- lung concentration, control (P-gp [3]): 50.63 ng/g or ml
- plasma concentration, control (P-gp [3]): 5.50 ng/g or ml
- spleen concentration, control (P-gp [3]): 29.42 ng/g or ml
- testes concentration, control (P-gp [3]): 30.18 ng/g or ml

Structure (SMILES): O=C(CCCN1CCC(O)(c2ccc(Cl)cc2)CC1)c1ccc(F)cc1 [Haloperidol]
- Inhibitor (ABCB1; inhibitor of ABCB1): (x)

Structure (SMILES): Cc1ncc2n1-c1ccc(Cl)cc1C(c1ccccc1F)=NC2 [Midazolam]
- Inhibitor (ABCB1): (x)

Structure (SMILES): CN1CCN2c3ncccc3Cc3ccccc3C2C1 (centres unmarked) [Mirtazapine]
- cerebrum concentration, control (P-gp [2]; [4]): 34.90 ng/g or ml
- intestine concentration, control (P-gp [2]; [4]): 19.96 ng/g or ml
- kidney concentration, control (P-gp [2]; [4]): 70.93 ng/g or ml
- liver concentration, control (P-gp [2]; [4]): 12.39 ng/g or ml
- lung concentration, control (P-gp [2]; [4]): 61.47 ng/g or ml
- plasma concentration, control (P-gp [2]; [4]): 7.66 ng/g or ml
- spleen concentration, control (P-gp [2]; [4]): 67.54 ng/g or ml
- testes concentration, control (P-gp [2]; [4]): 61.22 ng/g or ml
- ratio (−/−)/(+/+), cerebrum (P-gp [2]; [5]): 1.5
- ratio (−/−)/(+/+), intestine (P-gp [2]; [5]): 1.2
- ratio (−/−)/(+/+), kidney (P-gp [2]; [5]): 1.3
- ratio (−/−)/(+/+), liver (P-gp [2]; [5]): 1.7
- ratio (−/−)/(+/+), lung (P-gp [2]; [5]): 1.7
- ratio (−/−)/(+/+), plasma (P-gp [2]; [5]): 1.5
- ratio (−/−)/(+/+), spleen (P-gp [2]; [5]): 1.3
- ratio (−/−)/(+/+), testes (P-gp [2]; [5]): 1.8
- cerebrum concentration, abcb1ab (−/−) (P-gp [2]; [6]): 51.31 ng/g or ml
- intestine concentration, abcb1ab (−/−) (P-gp [2]; [6]): 24.58 ng/g or ml
- kidney concentration, abcb1ab (−/−) (P-gp [2]; [6]): 91.22 ng/g or ml
- liver concentration, abcb1ab (−/−) (P-gp [2]; [6]): 20.59 ng/g or ml
- lung concentration, abcb1ab (−/−) (P-gp [2]; [6]): 105.36 ng/g or ml
- plasma concentration, abcb1ab (−/−) (P-gp [2]; [6]): 11.17 ng/g or ml
- spleen concentration, abcb1ab (−/−) (P-gp [2]; [6]): 86.19 ng/g or ml
- testes concentration, abcb1ab (−/−) (P-gp [2]; [6]): 110.29 ng/g or ml
- P-gp substrate status at the BBB (P-gp [2]): not influenced by P-gp
- differences in testes/plasma ratio between knockout and control (P-gp [2]; in vivo, sc): not

Structure (SMILES): CCc1nn(CCCN2CCN(c3cccc(Cl)c3)CC2)c(=O)n1CCOc1ccccc1 [Nefazodone]
- Inducer (ABCB1): (x)

Structure (SMILES): Fc1ccc([C@@H]2CCNC[C@H]2COc2ccc3c(c2)OCO3)cc1 [Paroxetine]
- P-gp substrate status at the blood-brain barrier, earlier studies (P-gp [1]): substrates of P-gp at the blood-brain barrier

Structure (SMILES): O=c1n(CCCN2CCN(c3cccc(Cl)c3)CC2)nc2ccccn12 [Trazodone]
- Inducer (ABCB1): (x)

Structure (SMILES): COc1ccc(C(CN(C)C)C2(O)CCCCC2)cc1 (centres unmarked) [Venlafaxine]
- P-gp substrate status at the blood-brain barrier, earlier studies (P-gp [1]): substrates of P-gp at the blood-brain barrier
- brain concentrations, times higher in the mutant mice compared to wild-type littermates (P-gp [3]): 1.7 times
- cerebrum concentration, abcb1ab (−/−) (P-gp [3]): 456.32 ng/g or ml
- kidney concentration, abcb1ab (−/−) (P-gp [3]): 1054.88 ng/g or ml
- liver concentration, abcb1ab (−/−) (P-gp [3]): 323.22 ng/g or ml
- lung concentration, abcb1ab (−/−) (P-gp [3]): 672.59 ng/g or ml
- plasma concentration, abcb1ab (−/−) (P-gp [3]): 70.57 ng/g or ml
- spleen concentration, abcb1ab (−/−) (P-gp [3]): 564.20 ng/g or ml
- testes concentration, abcb1ab (−/−) (P-gp [3]): 842.61 ng/g or ml
- penetration into the brain (organ/plasma concentration ratio), times higher in animals lacking P-gp than in control animals (P-gp [3]): 1.8 times
- ratio (−/−)/(+/+), cerebrum (P-gp [3]): 1.7
- ratio (−/−)/(+/+), kidney (P-gp [3]): 1.0
- ratio (−/−)/(+/+), liver (P-gp [3]): 1.0
- ratio (−/−)/(+/+), lung (P-gp [3]): 0.9
- ratio (−/−)/(+/+), plasma (P-gp [3]): 1.0
- ratio (−/−)/(+/+), spleen (P-gp [3]): 1.0
- ratio (−/−)/(+/+), testes (P-gp [3]): 1.2
- differences in testes/plasma ratio between knockout and control (P-gp [3]): smaller but still significant differences
- P-gp substrate status at the BBB (P-gp [3]; this study, administration over 11 days): substrates of P-gp at the BBB
- cerebrum concentration, control (P-gp [3]): 261.14 ng/g or ml
- kidney concentration, control (P-gp [3]): 1035.27 ng/g or ml
- liver concentration, control (P-gp [3]): 314.59 ng/g or ml
- lung concentration, control (P-gp [3]): 747.38 ng/g or ml
- plasma concentration, control (P-gp [3]): 71.37 ng/g or ml
- spleen concentration, control (P-gp [3]): 581.95 ng/g or ml
- testes concentration, control (P-gp [3]): 715.92 ng/g or ml
